Experimental data taken from publication PMC10289334 (PLOS ONE, 2023).

Assays:
[1] = target: T1, FtFBPaseII (Francisella tularensis, UniProt Q5NEJ8); conditions: low (suboptimal) Mn2+; active site of chain C
T1 construct: gene gplX

[2] = target: T2, MtFBPaseII (Mycobacterium tuberculosis, UniProt P9WN21); type: binding
T2 construct: gene glpX; wild type; tetramer

[3] = target: Francisella tularensis class II fructose-1,6-bisphosphatase (FtFBPaseII), wild type (Francisella tularensis); assay: crystal structure
[4] = target: the molecule itself; assay: crystal structure

O=P(O)(O)OC[C@H]1OC(O)(COP(=O)(O)O)[C@@H](O)[C@@H]1O (stereo partly shown) [F1,6BP]
X-ray crystal structure (Form E, 2.2 A) [1]: could be interpreted as what appeared to be a substrate molecule bound | X-ray crystal structure (Form C, 3.7 A) [2]: The final refined structure confirmed the presence of the F1,6BP substrate in both chains

Francisella tularensis class II fructose-1,6-bisphosphatase (FtFBPaseII), wild type (enzyme)
stoichiometry N [3]: 4

B1: Mycobacterium tuberculosis class II fructose-1,6-bisphosphatase (MtFBPaseII), wild type (enzyme)
chain: MELVRVTEAGAMAAGRWVGRGDKEGGDGAAVDAMRELVNSVSMRGVVVIGEGEKDHAPMLYNGEEVGNGDGPECDFAVDPIDGTTLMSKGMTNAISVLAVADRGTMFDPSAVFYMNKIAVGPDAAHVLDITAPISENIRAVAKVKDLSVRDMTVCILDRPRHAQLIHDVRATGARIRLITDGDVAGAISACRPHSGTDLLAGIGGTPEGIIAAAAIRCMGGAIQAQLAPRDDAERRKALEAGYDLNQVLTTEDLVSGENVFFCATGVTDGDLLKGVRYYPGGCTTHSIVMRSKSGTVRMIEAYHRLSKLNEYSAIDFTGDSSAVYPLP
notes: also called Mt(Mg^2+)FBPaseII
stoichiometry N [4]: 4
